Measured values reported in the CheMixHub viscosity set.
“And” between values parts separate entries of the source, which are not always exact repeats. Identical values can stand only once.

Assay: xn = mol fraction of the nth substance listed

CS(C)=O + O
Conditions	viscosity
303.15 K, 101 kPa, x1 = 0.01869	0.91 mPa·s
303.15 K, 101 kPa, x1 = 0.0406	1.05 mPa·s
303.15 K, 101 kPa, x1 = 0.05	1.176 mPa·s
303.15 K, 101 kPa, x1 = 0.15	2.183 mPa·s
303.15 K, 101 kPa, x1 = 0.25	2.978 mPa·s
303.15 K, 101 kPa, x1 = 0.35	3.26 mPa·s
303.15 K, 101 kPa, x1 = 0.48	2.884 mPa·s
303.15 K, 101 kPa, x1 = 0.73	2.115 mPa·s
303.15 K, 101.3 kPa, x1 = 0.012	0.88 mPa·s
303.15 K, 101.3 kPa, x2 = 0.1906	2.071 mPa·s
303.15 K, 101.3 kPa, x2 = 0.3252	2.348 mPa·s
303.15 K, 101.3 kPa, x2 = 0.5203	2.958 mPa·s
303.15 K, 101.3 kPa, x2 = 0.6501	3.218 mPa·s
303.15 K, 101.3 kPa, x2 = 0.743	2.942 mPa·s
303.15 K, 101.3 kPa, x2 = 0.8183	2.402 mPa·s
303.15 K, 101.3 kPa, x2 = 0.8668	1.941 mPa·s
303.15 K, 101.3 kPa, x2 = 0.9101	1.536 mPa·s
303.15 K, 101.3 kPa, x2 = 0.9751	0.981 mPa·s
308.15 K, 101 kPa, x1 = 0.05	1.065 mPa·s
308.15 K, 101 kPa, x1 = 0.15	1.942 mPa·s
308.15 K, 101 kPa, x1 = 0.25	2.606 mPa·s
308.15 K, 101 kPa, x1 = 0.35	2.84 mPa·s
308.15 K, 101 kPa, x1 = 0.48	2.512 mPa·s and 2.733 mPa·s
308.15 K, 101 kPa, x1 = 0.73	1.86 mPa·s
308.15 K, 101.3 kPa, x1 = 0.012	0.792 mPa·s
308.15 K, 101.3 kPa, x2 = 0.1906	1.876 mPa·s
308.15 K, 101.3 kPa, x2 = 0.3252	2.109 mPa·s
308.15 K, 101.3 kPa, x2 = 0.5203	2.607 mPa·s
308.15 K, 101.3 kPa, x2 = 0.6501	2.802 mPa·s
308.15 K, 101.3 kPa, x2 = 0.743	2.558 mPa·s
308.15 K, 101.3 kPa, x2 = 0.8183	2.097 mPa·s
308.15 K, 101.3 kPa, x2 = 0.8668	1.708 mPa·s
308.15 K, 101.3 kPa, x2 = 0.9101	1.36 mPa·s
308.15 K, 101.3 kPa, x2 = 0.9455	1.091 mPa·s
308.15 K, 101.3 kPa, x2 = 0.9751	0.879 mPa·s
313.15 K, 101 kPa, x1 = 0.01	0.72 mPa·s
313.15 K, 101 kPa, x1 = 0.01869	0.73 mPa·s
313.15 K, 101 kPa, x1 = 0.025	0.79 mPa·s
313.15 K, 101 kPa, x1 = 0.039	0.87 mPa·s
313.15 K, 101 kPa, x1 = 0.0406	0.85 mPa·s
313.15 K, 101 kPa, x1 = 0.05	0.981 mPa·s
313.15 K, 101 kPa, x1 = 0.055	0.96 mPa·s
313.15 K, 101 kPa, x1 = 0.071	1.07 mPa·s
313.15 K, 101 kPa, x1 = 0.09	1.19 mPa·s
313.15 K, 101 kPa, x1 = 0.11	1.33 mPa·s
313.15 K, 101 kPa, x1 = 0.13	1.5 mPa·s
313.15 K, 101 kPa, x1 = 0.15	1.704 mPa·s
313.15 K, 101 kPa, x1 = 0.16	1.69 mPa·s
313.15 K, 101 kPa, x1 = 0.19	1.89 mPa·s
313.15 K, 101 kPa, x1 = 0.25	2.296 mPa·s
313.15 K, 101 kPa, x1 = 0.26	2.24 mPa·s
313.15 K, 101 kPa, x1 = 0.3	2.39 mPa·s
313.15 K, 101 kPa, x1 = 0.35	2.521 mPa·s
313.15 K, 101 kPa, x1 = 0.41	2.48 mPa·s
313.15 K, 101 kPa, x1 = 0.48	2.22 mPa·s and 2.34 mPa·s
313.15 K, 101 kPa, x1 = 0.57	2.16 mPa·s
313.15 K, 101 kPa, x1 = 0.67	1.95 mPa·s
313.15 K, 101 kPa, x1 = 0.73	1.72 mPa·s
313.15 K, 101 kPa, x1 = 0.81	1.73 mPa·s
313.15 K, 101.3 kPa, x1 = 0.012	0.718 mPa·s
313.15 K, 101.3 kPa, x2 = 0.1906	1.709 mPa·s
313.15 K, 101.3 kPa, x2 = 0.3252	1.905 mPa·s
313.15 K, 101.3 kPa, x2 = 0.5203	2.313 mPa·s
313.15 K, 101.3 kPa, x2 = 0.6501	2.459 mPa·s
313.15 K, 101.3 kPa, x2 = 0.743	2.24 mPa·s
313.15 K, 101.3 kPa, x2 = 0.8183	1.848 mPa·s
313.15 K, 101.3 kPa, x2 = 0.8668	1.513 mPa·s
313.15 K, 101.3 kPa, x2 = 0.9101	1.214 mPa·s
313.15 K, 101.3 kPa, x2 = 0.9455	0.978 mPa·s
313.15 K, 101.3 kPa, x2 = 0.9751	0.794 mPa·s
318.15 K, 101 kPa, x1 = 0.055	0.847 mPa·s
318.15 K, 101 kPa, x1 = 0.48	2.066 mPa·s
318.15 K, 101 kPa, x2 = 0.047	1.423 mPa·s
318.15 K, 101 kPa, x2 = 0.089	1.457 mPa·s
318.15 K, 101 kPa, x2 = 0.186	1.553 mPa·s
318.15 K, 101 kPa, x2 = 0.522	2.083 mPa·s
318.15 K, 101 kPa, x2 = 0.59	2.164 mPa·s
318.15 K, 101.3 kPa, x1 = 0.012	0.654 mPa·s
318.15 K, 101.3 kPa, x2 = 0.5203	2.065 mPa·s
318.15 K, 101.3 kPa, x2 = 0.743	1.976 mPa·s
318.15 K, 101.3 kPa, x2 = 0.8183	1.637 mPa·s
318.15 K, 101.3 kPa, x2 = 0.8668	1.348 mPa·s
318.15 K, 101.3 kPa, x2 = 0.9101	1.09 mPa·s
318.15 K, 101.3 kPa, x2 = 0.9455	0.884 mPa·s
318.15 K, 101.3 kPa, x2 = 0.9751	0.722 mPa·s
323.15 K, 101 kPa, x1 = 0.01869	0.62 mPa·s
323.15 K, 101 kPa, x1 = 0.0406	0.71 mPa·s
323.15 K, 101.3 kPa, x1 = 0.012	0.6 mPa·s
323.15 K, 101.3 kPa, x2 = 0.1906	1.428 mPa·s
323.15 K, 101.3 kPa, x2 = 0.3252	1.577 mPa·s
323.15 K, 101.3 kPa, x2 = 0.5203	1.853 mPa·s
323.15 K, 101.3 kPa, x2 = 0.6501	1.931 mPa·s
323.15 K, 101.3 kPa, x2 = 0.743	1.754 mPa·s
323.15 K, 101.3 kPa, x2 = 0.8183	1.46 mPa·s
323.15 K, 101.3 kPa, x2 = 0.8668	1.211 mPa·s
323.15 K, 101.3 kPa, x2 = 0.9101	0.985 mPa·s
323.15 K, 101.3 kPa, x2 = 0.9455	0.805 mPa·s
323.15 K, 101.3 kPa, x2 = 0.9751	0.66 mPa·s
